Measured values: the NIST ThermoML archive (doi:10.1021/je501126j)

Tests used:
[1] = 101 kPa, Liquid, Vibrating tube method
[2] = wn = mass fraction of the nth substance listed; settings: 101 kPa, Liquid, Vibrating tube method

CC(O)CN(C)C (stereo not drawn) [1-(dimethylamino)-2-propanol]
[1]
Settings	mass density [kg/m3]
298.15 K	845.2
303.15 K	840.4
308.15 K	835.6
313.15 K	830.7
318.15 K	825.9
323.15 K	820.9

CC(O)CN(C)C (stereo not drawn) [1-(dimethylamino)-2-propanol] + O
mass density [kg/m3], [2]
Settings	298.15 K	303.15 K	308.15 K	313.15 K	318.15 K	323.15 K
w1 = 0.1	992.5	990.8	988.9	986.7	984.2	982.1
w1 = 0.2	989.5	987.2	984.6	981.9	979	976
w1 = 0.3	984.6	981.4	978	974.5	970.9	967.2
w1 = 0.4	976.7	972.8	968.7	964.6	960.5	956.3
w1 = 0.5	967.2	962.9	958.5	954.1	949.4	944.8
w1 = 0.55	958.7	954.2	949.7	945	940.4	935.6
w1 = 0.6	948.9	944.2	939.6	934.8	930	925.2
w1 = 0.71	929.1	924.3	919.5	914.7	909.8	904.9
w1 = 0.81	905.6	900.9	896	891.1	886.2	881.2
w1 = 0.91	876.5	871.1	866.9	862	857.1	852.1
w1 = 0.96	860.5	855.7	850.8	846	841	836.1
w1 = 1	845.2	840.4	835.6	830.7	825.9	820.9
